Earlier results on one molecule are cited in patent publication US12150927B2, “Use of cannabidiolic acid in the treatment of autism spectrum disorder and associated disorders” (GW Research Limited, priority 2016, dated 2024).

The conditions of the data set: background statement; cited from earlier work.

Regarding `Cc1c(C(=O)NN2CCCCC2)nn(-c2ccc(Cl)cc2Cl)c1-c1ccc(Cl)cc1` [rimonabant], the side effects result is “serious side effects such as suicide ideation”.
